Test results published in patent US20230339890A1, “AMINO ALCOHOL COMPOUNDS AND USES THEREOF” (Kineta, Inc., priority 2020, published 2023).

Key:
TDP-43-expressing yeast = experiment: Yeast TDP-43 model viability (resazurin-reduction endpoint); type: cell-based; settings: 2-fold serial dilution applied for 24 hours
Experimental: (§1) (FIG. 1A) Structure of the Erg11 inhibitor and anti-fungal, fluconazole. […] A 2-fold serial dilution of fluconazole was applied to TDP-43-expressing yeast for 24 hours prior to analysis. (FIG. 1C) Wild-type yeast cultures were treated with fluconazole for eight hours prior to HPLC analysis for lanosterol and ergosterol. Data are expressed as the area under the curve (AUC) normalized to cell mass based on optical density of cultures at 600 nm.
The toxic gain of function features of TDP-43 can be faithfully recapitulated in the simple model organism, budding yeast, where the protein also localizes to stress granules. […] The yeast model thus provides a robust cell-based screening platform for small molecules capable of ameliorating toxicity. To validate compounds from such phenotypic screens, it is imperative to test compounds in a mammalian neuronal context. In an effort to develop TDP-43-related mammalian models of neuron loss that occurs in ALS and FTD, primary cultures of rat cortical neurons were transfected with human wild type or Q331K mutant TDP-43. These cells were compared to cells which received an empty expression vector control. […] In the experiments described in this example, this model system is used to interrogate new therapeutic approaches to ameliorate TDP-43 toxicity.
Fluconazole is an antifungal known to inhibit Erg11, the yeast lanosterol 14-alpha demethylase (FIG. 1B). […]

Erg11 = experiment: HPLC analysis of lanosterol and ergosterol in wild-type yeast cultures; type: cell-based; settings: wild-type yeast treated for eight hours
Experimental: as §1
Fluconazole is an antifungal known to inhibit Erg11, the yeast lanosterol 14-alpha demethylase (FIG. 1B). […] CYP51A1 has also been known as lanosterol 14-alpha demethylase, which describes its function in removing the 14-alpha-methyl group from lanosterol to generate 4,4-dimethylcholesta-8(9), 14, 24-trien-3β-ol, which is a critical step in the cholesterol biosynthetic pathway.

[1] = target: Recombinant human CYP51A1 (lanosterol-14a-demethylase) (Homo sapiens (Human), UniProt Q16850); experiment: Inhibition of CYP51A1, fluorescent substrate BOMCC; type: biochemical; settings: recombinant human CYP51A1 coexpressed with CYP reductase in bacterial membranes, 8-point concentration-response, read-out: CYP51 IC50
Source text: Method: Recombinant human CYP51A1 (lanosterol-14a-demethylase) enzyme was coexpressed with CYP reductase in bacterial membranes and the fluorescent substrate BOMCC (a nonnatural substrate that causes increases in fluorescence upon CYP51A1-dependent demethylation) was used to obtain 8-point dose concentration-response curves for each compound.

Recombinant human CYP51A1 (lanosterol-14a-demethylase), sequence (Q16850 whole entry): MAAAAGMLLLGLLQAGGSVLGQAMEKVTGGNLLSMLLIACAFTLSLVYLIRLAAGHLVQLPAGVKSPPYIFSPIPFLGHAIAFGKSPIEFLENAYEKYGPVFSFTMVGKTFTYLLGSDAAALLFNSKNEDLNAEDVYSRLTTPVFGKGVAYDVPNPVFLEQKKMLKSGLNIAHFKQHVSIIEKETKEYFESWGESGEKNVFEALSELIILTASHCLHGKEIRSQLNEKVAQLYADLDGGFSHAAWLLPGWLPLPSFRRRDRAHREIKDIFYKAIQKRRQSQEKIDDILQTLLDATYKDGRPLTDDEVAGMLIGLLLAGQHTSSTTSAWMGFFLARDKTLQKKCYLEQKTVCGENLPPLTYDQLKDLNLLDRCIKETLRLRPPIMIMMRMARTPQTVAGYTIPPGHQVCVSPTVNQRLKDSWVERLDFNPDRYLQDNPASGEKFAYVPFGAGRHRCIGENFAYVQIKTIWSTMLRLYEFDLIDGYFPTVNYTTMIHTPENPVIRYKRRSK

| Compound | IC50 [1] [nM] | further results |
| --- | --- | --- |
| OC(Cn1cncn1)(Cn1cncn1)c1ccc(F)cc1F [fluconazole] |  | viability of TDP-43-expressing yeast (TDP-43-expressing yeast): rescues viability; viability of TDP-43-expressing yeast (TDP-43-expressing yeast; listed as Fluconazole): restored viability; ergosterol (AUC normalized to cell mass) (Erg11): reduces ergosterol; lanosterol (AUC normalized to cell mass) (Erg11): increase in the Erg11 substrate, lanosterol |
| CCCN(C[C@@H](O)c1cccnc1)C(=O)Cc1cncc(C(F)(F)F)c1 [compound 59, N-[(2S)-2-hydroxy-2-(3-pyridyl)ethyl]-N-propyl-2-[5-(trifluoromethyl)-3-pyridyl]acetamide] | > 1000 |  |
| CCCN(CC(O)c1cccnc1)C(=O)Cc1ccc(F)c(F)c1 (stereo not drawn) [compound 95, 2-(3,4-difluorophenyl)-N-(2-hydroxy-2-(pyridin-3-yl)ethyl)-N-propylacetamide] | 100 to 1000 |  |
| O=C(Cc1ccc(C(F)(F)F)nc1)N(CC(O)c1cccnn1)C1CCC1 (single isomer, unassigned) [compound 62, N-cyclobutyl-N-(2-hydroxy-2-pyridazin-3-yl-ethyl)-2-[6-(trifluoromethyl)-3-pyridyl]acetamide] | > 1000 |  |
| CCCN(C[C@@H](O)c1cccnc1)C(=O)Cc1ccc2scnc2c1 [compound 47, 2-(1,3-benzothiazol-5-yl)-N-[(2S)-2-hydroxy-2-(3-pyridyl)ethyl]-N-propyl-acetamide] | 100 to 1000 |  |
| CC(C)(O)CN(CC(O)c1cccnc1)C(=O)Cc1ccc(Cl)c(Cl)c1 (stereo not drawn) [compound 43, 2-(3,4-dichlorophenyl)-N-(2-hydroxy-2-methylpropyl)-N-[2-hydroxy-2-(3-pyridyl)ethyl]acetamide] | > 1000 |  |
| CCCN(C[C@@H](O)c1cccnc1)C(=O)Cc1ccc(OC)c(Cl)c1 [compound 12, 2-(3-chloro-4-methoxy-phenyl)-N-[(2S)-2-hydroxy-2-(3-pyridyl)ethyl]-N-propyl-acetamide] | 100 to 1000 |  |
| CCCN(CC(O)c1cncc(Br)c1)C(=O)Cc1ccc(C(F)(F)F)nc1 (stereo not drawn) [compound 46, N-[2-(5-bromo-3-pyridyl)-2-hydroxyethyl]-N-propyl-2-[6-(trifluoromethyl)-3-pyridyl]acetamide] | > 1000 |  |
| Cc1ccncc1C(O)CN(CC1COC1)C(=O)Cc1ccc(C(F)(F)F)nc1 (stereo not drawn) [compound 89, N-[2-hydroxy-2-(4-methyl-3-pyridyl)ethyl] -N-(oxetan-3-ylmethyl)-2-[6-(trifluoromethyl)-3-pyridyl]acetamide] | > 1000 |  |
